Consider nine compounds from US9737535B2, “Methods for treating cancer using TOR kinase inhibitor combination therapy comprising administering substituted pyrazino[2,3-b]pyrazines” (Signal Pharmaceuticals, LLC, priority 2014, dated 2017).

Assay in all cases: Anti-proliferation assay (ATPLite), Chalice synergy score
What all share (format): cell-based
On the technique in general: Cellular ATP, detected with luciferase, serves as a proxy for viable cell number.

One assay concerns BT-20. Also noted: scale not given here. To be noted: Compound 1 in combination with the named second active agent, 72 h, mean of n = 3 experiments in triplicate. An excerpt: (§1) Cells were thawed from a liquid nitrogen preserved state.
(§2) The calculation for synergy score is provided below.
(§3) If T≧V0:100*[1−(T−V0)/(V−V0)]

Another assay has as its system HCC-1187. Also noted: scale not given here. Conditions: Compound 1 in combination with the named second active agent, 72 h, mean of n = 3 experiments in triplicate.
Description: as §1, §2, §3

The subject of the next assay is HCC-1500. Also noted: scale not given here. To be noted: Compound 1 in combination with the named second active agent, 72 h, mean of n = 3 experiments in triplicate.
Description: as §1, §2, §3

The subject of the next assay is BT-474. Conditions: Compound 1 in combination with the named second active agent, 72 h, mean of n = 3 experiments in triplicate.
Description: as §1, §2, §3

In the next assay the test system is BT-549. Conditions: Compound 1 in combination with the named second active agent, 72 h, mean of n = 3 experiments in triplicate.
Description: as §1, §2, §3

For a further assay, the system named is HCC-1428. To be noted: Compound 1 in combination with the named second active agent, 72 h, mean of n = 3 experiments in triplicate.
Description: as §1, §2, §3

For a further assay, the system named is HCC-1806. To be noted: Compound 1 in combination with the named second active agent, 72 h, mean of n = 3 experiments in triplicate.
Description: as §1, §2, §3

The subject of the next assay is HCC-1937. Conditions: Compound 1 in combination with the named second active agent, 72 h, mean of n = 3 experiments in triplicate.
Description: as §1, §2, §3

The next assay concerns HCC70. To be noted: Compound 1 in combination with second active agent; HCC-70; mean self-cross + 2σ threshold 3.45.
Description: as §1, §2, §3

In a further assay the test system is Hs-578-T. Conditions: Compound 1 in combination with second active agent, mean self-cross + 2σ threshold 4.09.
Description: as §1, §2, §3

A further assay relates to MCF7. To be noted: Compound 1 in combination with second active agent, mean self-cross + 2σ threshold 3.07.
Description: as §1, §2, §3

Another assay has as its system MDA-MB-157. Conditions: Compound 1 in combination with second active agent, mean self-cross + 2σ threshold 4.68.
Description: as §1, §2, §3

In the next assay the test system is MDA-MB-231. Conditions: Compound 1 in combination with second active agent, mean self-cross + 2σ threshold 2.61.
Description: as §1, §2, §3

The next assay concerns MDA-MB-436. To be noted: Compound 1 in combination with second active agent, mean self-cross + 2σ threshold 1.91.
Description: as §1, §2, §3

Another assay relates to MDA-MB-468. Conditions: Compound 1 in combination with second active agent, mean self-cross + 2σ threshold 4.66.
Description: as §1, §2, §3

Take `COc1ccc(-c2ccc3c(N4CCOC[C@@H]4C)nc(N4CCOC[C@@H]4C)nc3n2)cc1CO` [AZD8055]: the Synergy score in the assay with BT-20 is 0.70; with HCC-1187 it was 2.00; with HCC-1500, 2.98; in the assay with BT-474 it was 1.53; with BT-549, 0.98; in the assay with HCC-1428 it was 1.79. The Synergy score in the assay on HCC-1806 is reported as 1.47; in the assay with HCC-1937, 2.24; in the assay on HCC70 it was 1.13; with Hs-578-T it was 1.55; in the assay on MCF7 it was 1.22; with MDA-MB-157 it was 1.04. The Synergy score is 0.61 in the assay on MDA-MB-231, 0.15 with MDA-MB-436 and 1.69 with MDA-MB-468.
Consider `O=C(NOC[C@H](O)CO)c1ccc(F)c(F)c1Nc1ccc(I)cc1F` [PD0325901], for which the Synergy score with BT-20 is 6.34; with HCC-1187, 7.89; in the assay on HCC-1500 it was 3.58; in the assay with BT-474, 1.50; with BT-549, 1.62; in the assay on HCC-1428 it was 4.69. Besides, the Synergy score with HCC-1806 is reported as 3.78; in the assay with HCC-1937, 3.54; in the assay on HCC70 it was 14.70; with Hs-578-T it was 3.88; with MCF7 it was 4.62; with MDA-MB-157, 8.05. Besides, the results for the Synergy score in the assay on MDA-MB-231, in the assay on MDA-MB-436 and in the assay on MDA-MB-468 were 9.62, 4.20 and 5.84, respectively.
As to `CC(C)C[C@H](NC(=O)CNC(=O)c1cc(Cl)ccc1Cl)B1OC(=O)C(CC(=O)O)(CC(=O)O)O1` [MLN9708], the Synergy score came out at 3.67 in the assay on BT-20; 1.79 in the assay on HCC-1187; 2.26 in the assay with HCC-1500; 0.75 in the assay with BT-474; 4.47 in the assay on BT-549; 2.59 in the assay with HCC-1428. In addition, the Synergy score in the assay with HCC-1806 is reported as 4.31; in the assay with HCC-1937, 3.84; in the assay with HCC70, 2.16; with Hs-578-T it was 1.68; with MCF7 it was 0.39; in the assay with MDA-MB-157 it was 2.91. Further, the Synergy score with MDA-MB-231 turned out to be 2.27; in the assay with MDA-MB-436, 2.77; in the assay with MDA-MB-468 it was 3.00.
In the case of `NC(=O)[C@@H](CCC(F)(F)F)N(Cc1ccc(-c2ncon2)cc1F)S(=O)(=O)c1ccc(Cl)cc1` [BMS-708163], the Synergy score was 0.20 in the assay with BT-20; 3.06 in the assay with HCC-1187; 0.34 with HCC-1500; 0.19 with BT-474; 0.34 in the assay with BT-549; 0.26 in the assay on HCC-1428. Besides, the Synergy score with HCC-1806 was found to be 0.89; in the assay with HCC-1937, 0.96; in the assay on HCC70, 1.24; in the assay on Hs-578-T it was 1.36; in the assay on MCF7, 0.16; with MDA-MB-157 it was 0.63. Also, the Synergy score is 1.45 in the assay with MDA-MB-231, 0.86 in the assay with MDA-MB-436 and 0.98 with MDA-MB-468.
Turning to `CS(=O)(=O)c1ccc(C(=O)Nc2ccc(Cl)c(-c3ccccn3)c2)c(Cl)c1` [GDC-0449], the Synergy score is 0.11 with BT-20; 3.07 in the assay on HCC-1187; 0.78 in the assay with HCC-1500; 1.47 in the assay with BT-474; 0.07 with HCC-1428; 0.20 in the assay with HCC-1806. Also, the Synergy score in the assay on HCC-1937 amounted to 0.88; with HCC70, 1.10; with Hs-578-T, 0.28; in the assay on MDA-MB-157, 0.77; with MDA-MB-231 it was 0.08; with MDA-MB-468 it was 0.44.
Take `C[C@@]1(C(=O)Nc2ccc(F)nc2)CCCN1c1nc(Nc2cc(C3CC3)n[nH]2)c2cccn2n1` [BMS-754807]: the Synergy score amounted to 2.08 in the assay with BT-20; 9.68 in the assay with HCC-1187; 3.99 in the assay with HCC-1500; 1.30 with BT-474; 2.14 in the assay on BT-549; 4.09 in the assay with HCC-1428. The Synergy score is recorded as 3.04 in the assay on HCC-1806; 0.64 with HCC-1937; 2.08 in the assay on HCC70; 3.32 in the assay on Hs-578-T; 5.31 in the assay with MCF7; 9.46 in the assay on MDA-MB-157. Further, the Synergy score in the assay on MDA-MB-231 is listed as 2.50; in the assay with MDA-MB-436, 2.00; in the assay with MDA-MB-468, 2.25.
On to `C=CCn1c(=O)c2cnc(Nc3ccc(N4CCN(C)CC4)cc3)nc2n1-c1cccc(C(C)(C)O)n1` [MK1775], for which the Synergy score amounted to 5.01 in the assay with BT-20; 1.30 in the assay with HCC-1187; 2.46 in the assay with HCC-1500; 9.61 with BT-474; 2.99 in the assay with BT-549; 3.25 in the assay on HCC-1428. Also, the Synergy score is listed as 0.55 in the assay with HCC-1806; 7.93 with HCC-1937; 12.10 in the assay with HCC70; 9.02 in the assay on Hs-578-T; 5.76 in the assay with MCF7; 2.68 with MDA-MB-157. Further, the Synergy score amounted to 2.31 in the assay with MDA-MB-231, 1.45 in the assay on MDA-MB-436 and 7.69 in the assay on MDA-MB-468.
With `O=C(NC1CCNCC1)c1[nH]ncc1NC(=O)c1c(Cl)cccc1Cl` [AT7519], the Synergy score is 4.95 in the assay on BT-20; 0.03 in the assay with HCC-1500; 0.19 in the assay with BT-474; 4.33 with BT-549; 1.58 with HCC-1428; 1.01 in the assay on HCC-1806. Besides, the Synergy score with HCC-1937 was determined as 2.04; with HCC70, 0.86; in the assay on Hs-578-T, 5.16; with MCF7, 2.84; in the assay with MDA-MB-157, 5.37; with MDA-MB-231, 2.68. The Synergy score with MDA-MB-436 worked out at 2.57; in the assay with MDA-MB-468, 1.98.
Turning to `c1ccc2c(CCNc3ccc(Nc4ccncc4)cc3)c[nH]c2c1` [JNJ 26854165], the Synergy score was determined as 1.42 in the assay on BT-20; 1.63 in the assay on HCC-1187; 1.50 with HCC-1500; 1.77 with BT-474; 0.78 in the assay on BT-549; 1.02 in the assay with HCC-1428. In addition, the Synergy score in the assay on HCC-1806 is given as 2.51; in the assay on HCC70, 2.46; in the assay on Hs-578-T it was 1.28; in the assay on MCF7, 1.82; in the assay on MDA-MB-157, 2.53; with MDA-MB-231, 0.31. Besides, the Synergy score in the assay on MDA-MB-436 stood at 1.47; with MDA-MB-468 it was 3.28.
